This note sets out measurements from ChEMBL document CHEMBL1126846, “Two new unsaturated fatty acid ethanolamides in brain that bind to the cannabinoid receptor” (J Med Chem, 1993).

The target in the test is Cannabinoid receptor (Mus musculus, UniProt P47746+P47936). Nature of the test: Ability to displace [3H]HU-243 binding to cannabinoid receptor in synaptosomal membrane. The class given is cell membranes.

Broadly, the Ki is the equilibrium dissociation constant of an inhibitor or competing ligand from its target. A higher Ki goes with lower affinity.

SMILES strings stand for the structures.

`CCCCC/C=C\C/C=C\C/C=C\CCCCCCCC(=O)NCCO`: the Ki was 53.4 nM. The result for `CCCCC/C=C\C/C=C\C/C=C\C/C=C\CCCCCC(=O)NCCO` reads 34.4 nM.
